# Laboratory results taken from a compilation of properties of binary mixtures (doi:10.1021/acs.jced.9b00648).
# Assay: xn = mol fraction of the nth substance listed
# Settings: 100 kPa
smiles,measurement,setting,value
CC#N + C=C[n+]1ccn(CC(N)=O)c1.O=S(=O)([N-]S(=O)(=O)C(F)(F)F)C(F)(F)F,viscosity,"298.15 K, x2 = 0",0.344 mPa·s
same,viscosity,"303.15 K, x2 = 0",0.324 mPa·s
same,viscosity,"308.15 K, x2 = 0",0.308 mPa·s
same,viscosity,"313.15 K, x2 = 0",0.293 mPa·s
same,viscosity,"318.15 K, x2 = 0",0.277 mPa·s
same,viscosity,"328.15 K, x2 = 0",0.246 mPa·s
same,viscosity,"333.15 K, x2 = 0",0.219 mPa·s
C=C[n+]1ccn(CC(N)=O)c1.O=S(=O)([N-]S(=O)(=O)C(F)(F)F)C(F)(F)F + CC#N,electrical conductivity,"298.15 K, x1 = 0.02",2.52 S/m
same,electrical conductivity,"298.15 K, x1 = 0.047",3.16 S/m
same,viscosity,"298.15 K, x1 = 0.05",2.88 mPa·s
same,electrical conductivity,"298.15 K, x1 = 0.07",3.32 S/m
same,electrical conductivity,"298.15 K, x1 = 0.08",3.26 S/m
same,electrical conductivity,"298.15 K, x1 = 0.1",3.06 S/m
same,viscosity,"298.15 K, x1 = 0.1",10.3 mPa·s
same,electrical conductivity,"298.15 K, x1 = 0.2",1.6 S/m
same,viscosity,"298.15 K, x1 = 0.201",75 mPa·s
same,viscosity,"298.15 K, x1 = 0.3026",276 mPa·s
same,electrical conductivity,"298.15 K, x1 = 0.393",0.39 S/m
same,viscosity,"298.15 K, x1 = 0.4011",810 mPa·s
same,electrical conductivity,"298.15 K, x1 = 1",0.01 S/m
same,viscosity,"298.15 K, x1 = 1",281 mPa·s
same,electrical conductivity,"303.15 K, x1 = 0.01",1.34 S/m
same,viscosity,"303.15 K, x1 = 0.01",0.64 mPa·s
same,electrical conductivity,"303.15 K, x1 = 0.02",2.64 S/m
same,electrical conductivity,"303.15 K, x1 = 0.047",3.32 S/m
same,viscosity,"303.15 K, x1 = 0.05",2.84 mPa·s
same,electrical conductivity,"303.15 K, x1 = 0.08",3.47 S/m
same,viscosity,"303.15 K, x1 = 0.3026",247 mPa·s
same,electrical conductivity,"303.15 K, x1 = 1",0.02 S/m
same,viscosity,"303.15 K, x1 = 1",140 mPa·s
same,electrical conductivity,"308.15 K, x1 = 0.047",3.52 S/m
same,viscosity,"308.15 K, x1 = 0.05",2.71 mPa·s
same,electrical conductivity,"308.15 K, x1 = 0.07",3.74 S/m
same,electrical conductivity,"308.15 K, x1 = 0.08",3.72 S/m
same,electrical conductivity,"308.15 K, x1 = 0.1",3.53 S/m
same,viscosity,"308.15 K, x1 = 0.1",9.2 mPa·s
same,electrical conductivity,"308.15 K, x1 = 0.2",1.98 S/m
same,viscosity,"308.15 K, x1 = 0.3026",202 mPa·s
same,electrical conductivity,"308.15 K, x1 = 0.393",0.6 S/m
same,viscosity,"308.15 K, x1 = 0.4011",550 mPa·s
same,electrical conductivity,"313.15 K, x1 = 0.01",1.47 S/m
same,viscosity,"313.15 K, x1 = 0.01",0.57 mPa·s
same,electrical conductivity,"313.15 K, x1 = 0.02",2.9 S/m
same,electrical conductivity,"313.15 K, x1 = 0.047",3.7 S/m
same,viscosity,"313.15 K, x1 = 0.05",2.49 mPa·s
same,electrical conductivity,"313.15 K, x1 = 0.07",3.96 S/m
same,electrical conductivity,"313.15 K, x1 = 0.08",3.95 S/m
same,electrical conductivity,"313.15 K, x1 = 0.2",2.19 S/m
same,viscosity,"313.15 K, x1 = 0.201",51 mPa·s
same,viscosity,"313.15 K, x1 = 0.3026",163 mPa·s
same,electrical conductivity,"313.15 K, x1 = 0.393",0.73 S/m
same,electrical conductivity,"313.15 K, x1 = 1",0.05 S/m
same,viscosity,"313.15 K, x1 = 1",35.3 mPa·s
same,electrical conductivity,"318.15 K, x1 = 0.02",3.01 S/m
same,viscosity,"318.15 K, x1 = 0.05",2.39 mPa·s
same,electrical conductivity,"318.15 K, x1 = 0.07",4.16 S/m
same,electrical conductivity,"318.15 K, x1 = 0.08",4.17 S/m
same,electrical conductivity,"318.15 K, x1 = 0.1",4.02 S/m
same,viscosity,"318.15 K, x1 = 0.1",7.7 mPa·s
same,viscosity,"318.15 K, x1 = 0.201",45.9 mPa·s
same,viscosity,"318.15 K, x1 = 0.3026",142 mPa·s
same,electrical conductivity,"318.15 K, x1 = 0.393",0.86 S/m
same,viscosity,"318.15 K, x1 = 0.4011",352 mPa·s
same,electrical conductivity,"318.15 K, x1 = 1",0.07 S/m
same,viscosity,"318.15 K, x1 = 1",19.8 mPa·s
same,electrical conductivity,"323.15 K, x1 = 0.01",1.58 S/m
same,viscosity,"323.15 K, x1 = 0.01",0.52 mPa·s
same,electrical conductivity,"323.15 K, x1 = 0.02",3.13 S/m
same,electrical conductivity,"323.15 K, x1 = 0.047",4.03 S/m
same,viscosity,"323.15 K, x1 = 0.05",2.26 mPa·s
same,electrical conductivity,"323.15 K, x1 = 0.07",4.36 S/m
same,electrical conductivity,"323.15 K, x1 = 0.1",4.25 S/m
same,viscosity,"323.15 K, x1 = 0.1",7 mPa·s
same,viscosity,"323.15 K, x1 = 0.201",40.2 mPa·s
same,electrical conductivity,"323.15 K, x1 = 0.393",1 S/m
same,viscosity,"323.15 K, x1 = 0.4011",288 mPa·s
same,electrical conductivity,"328.15 K, x1 = 0.01",1.65 S/m
same,viscosity,"328.15 K, x1 = 0.01",0.48 mPa·s
same,electrical conductivity,"328.15 K, x1 = 0.02",3.25 S/m
same,electrical conductivity,"328.15 K, x1 = 0.047",4.19 S/m
same,viscosity,"328.15 K, x1 = 0.05",2.17 mPa·s
same,electrical conductivity,"328.15 K, x1 = 0.08",4.61 S/m
same,electrical conductivity,"328.15 K, x1 = 0.2",2.8 S/m
same,viscosity,"328.15 K, x1 = 0.201",36.8 mPa·s
same,viscosity,"328.15 K, x1 = 0.3026",105 mPa·s
same,electrical conductivity,"328.15 K, x1 = 0.393",1.16 S/m
same,electrical conductivity,"333.15 K, x1 = 0.01",1.69 S/m
same,viscosity,"333.15 K, x1 = 0.01",0.47 mPa·s
same,electrical conductivity,"333.15 K, x1 = 0.02",3.35 S/m
same,viscosity,"333.15 K, x1 = 0.05",2.01 mPa·s
same,electrical conductivity,"333.15 K, x1 = 0.07",4.79 S/m
same,electrical conductivity,"333.15 K, x1 = 0.08",4.77 S/m
same,electrical conductivity,"333.15 K, x1 = 0.1",4.72 S/m
same,viscosity,"333.15 K, x1 = 0.1",6.1 mPa·s
same,electrical conductivity,"333.15 K, x1 = 0.2",3 S/m
same,viscosity,"333.15 K, x1 = 0.3026",90 mPa·s
same,electrical conductivity,"333.15 K, x1 = 0.393",1.33 S/m
same,viscosity,"333.15 K, x1 = 0.4011",193 mPa·s
same,electrical conductivity,"333.15 K, x1 = 1",0.2 S/m
same,viscosity,"333.15 K, x1 = 1",6.2 mPa·s
O=S(=O)([N-]S(=O)(=O)C(F)(F)F)C(F)(F)F.[Li+] + CC#N,electrical conductivity,"298.15 K, x1 = 0.0207",2.67 S/m
same,electrical conductivity,"298.15 K, x1 = 0.0307",3.11 S/m
same,electrical conductivity,"298.15 K, x1 = 0.0405",3.53 S/m
same,electrical conductivity,"298.15 K, x1 = 0.0501",3.93 S/m
same,electrical conductivity,"298.15 K, x1 = 0.0596",4.07 S/m
same,electrical conductivity,"298.15 K, x1 = 0.0688",3.93 S/m
same,electrical conductivity,"298.15 K, x1 = 0.0779",3.82 S/m
same,electrical conductivity,"298.15 K, x1 = 0.0868",3.65 S/m
same,electrical conductivity,"303.15 K, x1 = 0.0405",3.68 S/m
same,electrical conductivity,"303.15 K, x1 = 0.0501",4.1 S/m
same,electrical conductivity,"303.15 K, x1 = 0.0596",4.25 S/m
same,electrical conductivity,"303.15 K, x1 = 0.0688",4.12 S/m
same,electrical conductivity,"303.15 K, x1 = 0.0779",4.01 S/m
same,electrical conductivity,"303.15 K, x1 = 0.0868",3.84 S/m
same,electrical conductivity,"308.15 K, x1 = 0.0207",2.91 S/m
same,electrical conductivity,"308.15 K, x1 = 0.0596",4.45 S/m
same,electrical conductivity,"308.15 K, x1 = 0.0688",4.33 S/m
same,electrical conductivity,"308.15 K, x1 = 0.0868",4.05 S/m
same,electrical conductivity,"313.15 K, x1 = 0.0307",3.47 S/m
same,electrical conductivity,"313.15 K, x1 = 0.0405",4.01 S/m
same,electrical conductivity,"313.15 K, x1 = 0.0501",4.47 S/m
same,electrical conductivity,"313.15 K, x1 = 0.0596",4.63 S/m
same,electrical conductivity,"313.15 K, x1 = 0.0688",4.53 S/m
same,electrical conductivity,"313.15 K, x1 = 0.0868",4.26 S/m
same,electrical conductivity,"318.15 K, x1 = 0.0207",3.14 S/m
same,electrical conductivity,"318.15 K, x1 = 0.0307",3.58 S/m
same,electrical conductivity,"318.15 K, x1 = 0.0596",4.8 S/m
same,electrical conductivity,"318.15 K, x1 = 0.0688",4.7 S/m
same,electrical conductivity,"318.15 K, x1 = 0.0779",4.52 S/m
same,electrical conductivity,"318.15 K, x1 = 0.0868",4.45 S/m
same,electrical conductivity,"323.15 K, x1 = 0.0207",3.24 S/m
same,electrical conductivity,"323.15 K, x1 = 0.0307",3.7 S/m
same,electrical conductivity,"323.15 K, x1 = 0.0405",4.29 S/m
same,electrical conductivity,"323.15 K, x1 = 0.0501",4.81 S/m
same,electrical conductivity,"323.15 K, x1 = 0.0688",4.87 S/m
same,electrical conductivity,"323.15 K, x1 = 0.0779",4.74 S/m
same,electrical conductivity,"323.15 K, x1 = 0.0868",4.63 S/m
same,electrical conductivity,"328.15 K, x1 = 0.0207",3.34 S/m
same,electrical conductivity,"328.15 K, x1 = 0.0307",3.81 S/m
same,electrical conductivity,"328.15 K, x1 = 0.0405",4.43 S/m
same,electrical conductivity,"328.15 K, x1 = 0.0688",5.05 S/m
same,electrical conductivity,"328.15 K, x1 = 0.0779",4.95 S/m
same,electrical conductivity,"328.15 K, x1 = 0.0868",4.82 S/m
same,electrical conductivity,"333.15 K, x1 = 0.0207",3.47 S/m
same,electrical conductivity,"333.15 K, x1 = 0.0307",3.92 S/m
same,electrical conductivity,"333.15 K, x1 = 0.0405",4.57 S/m
same,electrical conductivity,"333.15 K, x1 = 0.0501",5.16 S/m
same,electrical conductivity,"333.15 K, x1 = 0.0688",5.24 S/m
same,electrical conductivity,"333.15 K, x1 = 0.0779",5.17 S/m
same,electrical conductivity,"333.15 K, x1 = 0.0868",4.99 S/m
